Source: US9340549B2, “Oxazolidinone compounds and derivatives thereof” (priority 2012, dated 2016)
Like-named read-outs stand apart in the source and are kept apart here.

Columns and labels:
[1] = biological target: 6×HIS-tankyrase 1 (1091-1325) (Homo sapiens (Human), UniProt O95271); test: biochemical; format: biochemical; conditions: […] enzyme, 400 nM NAD, 60 minutes at room temperature; read-out: TNKS1 IP IC50
[2] = system: total β-catenin in SW480 colorectal cells; test: cells; format: cell-based
Method in brief: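 SW480 cells in growth medium (MEM alpha, 10% heat-inactivated FBS, 10 mM HEPES) treated with a 10-point, 3-fold dilution series of TNKS inhibitor for 40–48 h at 37 °C. Lysates run on an MSD sandwich immunoassay for total β-catenin, read by electrochemiluminescence.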

Axin2 in SW480 cells = test: cells; format: cell-based; conditions: read-out: Axin2 384 IF EC50 IP
Method in brief: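 SW480 cells treated 24 h at 37° C (0.5% DMSO final), fixed/permeabilized, immunostained for Axin2. ArrayScan imaging quantified ring-spot intensity; Axin2 accumulation expressed as percent of control, EC50 from concentration-response.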

[3] = Homo sapiens, SW480 cells, 40 to 48 hours, top concentration 10 μM, read-out: SW480-Total β-Catenin IC50 IP
[4] = Homo sapiens, SW480, 24 h, SW480 cells, 24 hours
[5] = Homo sapiens, SW480, read-out: SW480-Total β-Catenin IC50 IP

6×HIS-tankyrase 1 (1091-1325), sequence (O95271 1091-1325): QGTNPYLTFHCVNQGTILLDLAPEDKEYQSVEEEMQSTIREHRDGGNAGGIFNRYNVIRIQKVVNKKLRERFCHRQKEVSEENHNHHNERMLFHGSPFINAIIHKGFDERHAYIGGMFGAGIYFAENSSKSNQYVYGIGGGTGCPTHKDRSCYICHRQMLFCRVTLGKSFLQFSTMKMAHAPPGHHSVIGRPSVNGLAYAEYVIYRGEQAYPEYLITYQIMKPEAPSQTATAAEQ

| Molecule | IC50 [1] | IC50 [2, 3] | EC50 (Axin2 in SW480 cells; [4]) | EC50 (Axin2 in SW480 cells; Homo sapiens, SW480 cells, 24 hours) | IC50 [2, 5] | EC50 (Axin2 in SW480 cells; Homo sapiens, SW480, 24 h) | IC50 ([2]; SW480 cells, 40 to 48 hours, top concentration 10 μM, read-out: SW480-Total β-Catenin IC50 IP) | EC50 (Axin2 in SW480 cells; SW480 cells, 24 hours) |
| --- | --- | --- | --- | --- | --- | --- | --- | --- |
| CC1(C)OC(=O)N(c2ccc(-c3cnc(N)c(-c4cnnc(Cl)c4)c3)cc2)[C@H]1c1ccccc1 (single isomer, unassigned) [Example 101] | 16.2 nM | 210 nM | 197 nM |  |  |  |  |  |
| CC1(C)OC(=O)N(c2ccc(-n3c(=O)oc4ccccc43)cc2)[C@H]1c1ccccc1 [Example 17, (S)-3-(4-(5,5-dimethyl-2-oxo-4-phenyloxazolidin-3-yl)phenyl)benzo[d]oxazol-2(3H)-one] | 2820 nM | > 10000 nM | > 25000 nM |  |  |  |  |  |
| CC1(c2ccccc2)CN([C@H]2CC[C@H](n3c(=O)[nH]c4ccccc43)CC2)C(=O)O1 (stereo partly drawn) [Example 34, (R+S) 5-methyl-3-((1r,4r)-4-(2-oxo-2,3-dihydro-1H-benzo[d]imidazol-1-yl)cyclohexyl)-5-phenyloxazolidin-2-one] | 42.8 nM | 829 nM |  | 2720 nM |  |  |  |  |
| COc1ccc([C@@H]2N(c3ccc(C(=O)Nc4cccc5cccnc45)cc3)C(=O)OC2(C)C)cc1 [Example 113, (S)-4-(4-(4-methoxyphenyl)-5,5-dimethyl-2-oxooxazolidin-3-yl)-N-(quinolin-8-yl)benzamide] | 130 nM | 2110 nM | 5220 nM |  |  |  |  |  |
| CC1(C)OC(=O)N(c2ccc(-n3c(=O)[nH]c4ccccc43)nc2)[C@H]1c1ccccc1 [Example 22, (S)-5,5-dimethyl-3-(6-(2-oxo-2,3-dihydro-1H-benzo[d]imidazol-1-yl)pyridin-3-yl)-4-phenyloxazolidin-2-one] | 1430 nM | > 10000 nM | > 25000 nM |  |  |  |  |  |
| CC1(C)OC(=O)N([C@H]2CC[C@H](N3Cc4cc(C#N)ccc4NC3=O)CC2)[C@H]1c1ccccc1 [Example 62, 3-((1S,4r)-4-((S)-5,5-dimethyl-2-oxo-4-phenyloxazolidin-3-yl)cyclohexyl)-2-oxo-1,2,3,4-tetrahydroquinazoline-6-carbonitrile] | 7.63 nM | 438 nM | 147 nM |  |  |  |  |  |
| CC1(C)OC(=O)N([C@H]2CC[C@H](c3nnc(-c4ccccc4)o3)CC2)C1c1ccccc1 (stereo partly drawn) [Example 84, 5,5-dimethyl-4-phenyl-3-((1r,4r)-4-(5-phenyl-1,3,4-oxadiazol-2-yl)cyclohexyl)oxazolidin-2-one] | 473 nM | 4940 nM | 7600 nM |  |  |  |  |  |
| CC1(C)OC(=O)N([C@H]2CC=C(c3cc(-c4ncccn4)c[nH]c3=O)CC2)[C@H]1c1ccccc1 (single isomer, unassigned) [Example 6] | 46.8 nM | 585 nM | 2660 nM |  |  |  |  |  |
| CC1(C)OC(=O)N(c2ccc(-c3nnc4cc(C#N)ccn34)cc2)[C@H]1c1ccccc1 [Example 67, (S)-3-(4-(5,5-dimethyl-2-oxo-4-phenyloxazolidin-3-yl)phenyl)-[1,2,4]triazolo[4,3-a]pyridine-7-carbonitrile] | 5230 nM | > 10000 nM | > 25000 nM |  |  |  |  |  |
| CC1(C)OC(=O)N([C@H]2CC[C@H](c3cc(C4=NCCCN4)c[nH]c3=O)CC2)[C@H]1c1ccccc1 [Example 130, (S)-5,5-dimethyl-3-((1r,4S)-4-(2-oxo-5-(1,4,5,6-tetrahydropyrimidin-2-yl)-1,2-dihydropyridin-3-yl)cyclohexyl)-4-phenyloxazolidin-2-one] | 783 nM |  |  |  | > 10000 nM | > 25000 nM |  |  |
| C[C@@]1(c2ccccc2)CN([C@H]2CC[C@H](n3c(=O)[nH]c4cnccc43)CC2)C(=O)O1 (single isomer, unassigned) [Example 90] | 772 nM | > 10000 nM | > 25000 nM |  |  |  |  |  |
| (S)-5,5-dimethyl-3-(4-(2-oxo-1H-imidazo[4,5-c]pyridin-3(2H)-yl)phenyl)-4-phenyloxazolidin-2-one [Example 15] | 105 nM |  |  |  |  |  | 992 nM | 4150 nM |
| CC1(C)OC(=O)N(c2ccc(-c3nnc4cc(-c5cncnc5)ccn34)cc2)[C@H]1c1ccccc1 [Example 66, (S)-5,5-dimethyl-4-phenyl-3-(4-(7-(pyrimidin-5-yl)-[1,2,4]triazolo[4,3-a]pyridin-3-yl)phenyl)oxazolidin-2-one] | 1970 nM | 9270 nM | > 25000 nM |  |  |  |  |  |
| CC1(c2ccccc2)CN([C@H]2CC[C@H](n3c(=O)[nH]c4cnccc43)CC2)C(=O)O1 (stereo partly drawn) [Example 89, (R+S)-5-methyl-3-((1r,4R)-4-(2-oxo-2,3-dihydro-1H-imidazo[4,5-c]pyridin-1-yl)cyclohexyl)-5-phenyloxazolidin-2-one] | 17.2 nM | 3440 nM | 7030 nM |  |  |  |  |  |
| CC1(C)OC(=O)N([C@H]2CC[C@H](c3cnc(N)c(C#N)c3)CC2)[C@H]1c1ccccc1 [Example 95, 2-amino-5-((1S,4r)-4-((S)-5,5-dimethyl-2-oxo-4-phenyloxazolidin-3-yl)cyclohexyl)nicotinonitrile] | 6.98 nM | 468 nM | 474 nM |  |  |  |  |  |
| CC1(C)OC(=O)N([C@H]2CC[C@H](c3cnc4[nH]c(=O)n(-c5ncccn5)c4c3)CC2)[C@H]1c1ccccc1 [Example 98, (S)-5,5-dimethyl-3-((1r,4S)-4-(2-oxo-1-(pyrimidin-2-yl)-2,3-dihydro-1H-imidazo[4,5-b]pyridin-6-yl)cyclohexyl)-4-phenyloxazolidin-2-one] | 0.316 nM | 48.2 nM | 35.7 nM |  |  |  |  |  |
| CC1(C)OC(=O)N(c2ccc(-c3cc(-c4cccnc4)cnc3F)cc2)[C@H]1c1ccccc1 [Example 117, (S)-3-(4-(6-fluoro-[3,3′-bipyridin]-5-yl)phenyl)-5,5-dimethyl-4-phenyloxazolidin-2-one] | 193 nM | 1050 nM | 5740 nM |  |  |  |  |  |
| CC1(C)OC(=O)N([C@H]2CC[C@H](c3cnc(N)c(Nc4ncccn4)c3)CC2)[C@@H]1c1ccccc1 [Example 13, (S)-3-((1r,4S)-4-(6-Amino-5-(pyrimidin-2-ylamino)pyridin-3-yl)cyclohexyl)-5,5-dimethyl-4-phenyloxazolidin-2-one] | 2060 nM | > 10000 nM | > 25000 nM |  |  |  |  |  |
| CC1(C)OC(=O)N([C@H]2CC[C@H](c3cc(-c4ncccn4)c[nH]c3=O)CC2)[C@@H]1c1ccccc1 [Example 82, 3-(trans-4-((4R)-5,5-dimethyl-2-oxo-4-phenyl-1,3-oxazolidin-3-yl)cyclohexyl)-5-(2-pyrimidinyl)-2(1H)-pyridinone] | 195 nM |  |  |  | 1340 nM | 7130 nM |  |  |
| CC1(C)OC(=O)N([C@H]2CC[C@@H](c3cnc(N)c(C4=NCCCN4)c3)CC2)[C@H]1c1ccccc1 [Example 76, (S)-3-((1s,4R)-4-(6-amino-5-(1,4,5,6-tetrahydropyrimidin-2-yl)pyridin-3-yl)cyclohexyl)-5,5-dimethyl-4-phenyloxazolidin-2-one] | 9840 nM | > 10000 nM | > 25000 nM |  |  |  |  |  |
| CC1(C)OC(=O)N([C@H]2CC[C@H](n3c(=O)[nH]c4cnc(C(F)(F)F)cc43)CC2)[C@H]1c1ccccc1 [Example 52, (S)-5,5-dimethyl-3-((1r,4S)-4-(2-oxo-6-(trifluoromethyl)-2,3-dihydro-1H-imidazo[4,5-c]pyridin-1-yl)cyclohexyl)-4-phenyloxazolidin-2-one] | 25.8 nM | 693 nM | 1030 nM |  |  |  |  |  |
